# Reference: patent publication US20220354957A1, “PEPTIDES TARGETING MACROPHAGES, AND CONJUGATES, COMPOSITIONS, AND USES THEREOF” (Twinpig Biolab, Inc., priority 2021, published 2022)
# Legend:
# [1] = tested on: CT26; assay: Colon cancer model (CT26); assay type: in vivo, mouse; settings: vs PBS group
# Source text: (§1) BALB/c and C57BL/6 (B6) wild-type mice were purchased from DBL. For the subcutaneous tumor model of melanoma and prostate cancer, CT26 (3×10^5 cells/mouse), B16F10 (1×10^6 cells/mouse) and TRAMP-C2 cells (1×10^6 cells/mouse) were mixed with Matrigel matrix (Corning) and inoculated subcutaneously into the right flank of the mice, and 4T1 (1×10^5 cells/mouse) cells mixed with Matrigel matrix and inoculated into a 4th mammary fat pad of the mice. TAMpepK, and MpepK peptides (200 nmol/kg) were injected intraperitoneally every 3 days, beginning at day 7 after tumor inoculation, and tumor volume was measured by electronic caliper. All tumor tissues were harvested after the end of the study and tumor weight was measured by an electronic balance.
# [2] = tested on: 4T1; assay: 4th mammary orthotopic mouse model of breast cancer (4T1); assay type: in vivo
# Source text: as §1
# Total RNA was extracted using Easy-Blue reagent. Concentrations of RNA were determined and quantified by measuring absorbance at 260 and 280 nm with a spectrophotometer. Complementary DNA (cDNA) was synthesized from total RNA using a Maxime RT PreMix kit (iNtRON). Real-time PCR analysis was performed with SYBR Green Master Mix. PCR conditions were forty-five cycles at 95° C. for 5 min, followed by 95° C. for 10 sec, 60° C. for 10 sec and 72° C. for 10 sec. mRNA expression were quantified in triplicate. Data were measured with CFX Software (Bio-Rad). GAPDH and β-actin were used as internal controls.
# [3] = tested on: M2 macrophages; assay: Apoptosis and caspase-3 expression in THP-1-derived macrophages; assay type: cell-based, human
# Protocol: THP-1 cells were differentiated into macrophages by 24 h incubation with 100 nM PMA and polarized in M2 macrophages by incubation with 20 ng/ml of IL-4 and 20 ng/ml of IL-13 for 72 h. Polarized cells were treated with increasing concentrations of TAMpep and fragments of TAMpep (0.05-20 μM) for 24 h. Cell viability was analyzed using the CCK-8 assay: CCK-8 reagent (Enzo Life Sciences) was added to each well; incubation was continued for 2 hours, and absorbance was measured at 450 nm with a microplate reader (Molecular Devices).
# THP-1 cells were seeded on cover glasses in 24-well plates and differentiated into M0, M1 and M2 macrophages. Cells were treated with 1 μM TAMpepK and MpepK for 1 h and incubated for 24 h after remove of peptides. Cells were washed, fixed with 4% paraformaldehyde for 10 minutes at […] and blocked with 0.1% normal goat serum for 1 hour. The cover glasses were then incubated with anti-caspase-3 antibody (1:50, rabbit polyclonal, Abcam) overnight at 4° C., and then washed and stained with Alexa 594-labelled goat anti-rabbit lgG (1:500, Invitrogen) at 37° C. for 1 hr. The cover glasses were mounted in Vectashield mounting medium (Vector Laboratories) with DAPI to visualize nuclei. Images photographed by fluorescence microscope (Leica).
# [4] = tested on: PC3 cells; assay: Proliferation and migration of prostate cancer cells by conditioned medium of macrophages; assay type: cell-based, human; settings: conditioned media of M2 macrophages and M2-like TAMs pretreated with peptide
# Protocol: To obtain conditioned media of tumor (TCM), PC3 cells were seeded at 2×10^5 cells/well in culture medium in 24-well plates (Corning Inc). After 24 hours, the medium was changed to serum-free RPMI1640 medium and the cells were incubated for 24 hours. For conditioned media of macrophages, THP-1 cells were seeded at 2×10^5 cells/well in culture medium in 24-well plates (Corning Inc) and incubated with 100 nM PMA for 24 h. Cells were polarized into M0, M1, and M2 macrophages or TAM macrophages by TCM and changed to serum-free RPMI1640 medium. After 24 hours, the medium was changed to serum-free RPMI1640 medium and the cells were incubated for 24 hours. Supernatants were harvested and clarified with syringe filters (0.2 μm, Milipore). Supernatants of PC3 cells were named tumor-conditioned medium (TCM).
# Migration of prostate cancer and melanoma cells was assessed with wound healing assays. PC3 and Sk-Mel-28 cells were seeded at 2×10^5 cells/well in 24-well plates and cultured in RPMI1640 with 10% FBS. When the cells reached confluence, they were wounded by scraping across the surface of the well with a sterile micropipette tip. […] Wound areas were measured with ImageJ software (NCI, Bethesda, Md., USA). The percent of each wounded area filled by cell migration was calculated as: (mean wounded breadth—mean remaining breadth)/mean wounded breadth×100.
# [5] = tested on: TRAMP-C2 cells; assay: Mouse model of prostate cancer (subcutaneous TRAMP-C2); assay type: in vivo
# Source text: as §1
# Cells were harvested and lysed in PRO-PREP protein extraction solution (iNtRON, Bio Inc, Sungnam, Korea). Protein concentrations were measured with a Bradford Protein Assay Reagent kit (Bio-Rad, Richmond, CA, USA). Proteins were fractionated by 10% SDS-polyacrylamide gels electrophoresis (PAGE), and transferred onto polyvinylidene difluoride (PVDF) membranes. These were incubated with anti-arginase 1, anti-CD206, anti-caspase 3, anti-E-cadherin, anti-fibronectin, anti-PCNA, anti-TGF-β, anti-MMP9, and anti-β-actin Ab as primary antibodies. Goat anti-rabbit horseradish peroxidase-conjugated IgG or goat anti-mouse horseradish peroxidase-conjugated IgG (Abcam, Cambridge, Mass., USA) served as secondary antibodies. Protein bands were detected with a chemiluminescence reagent kit (SurModics).
# [6] = tested on: macrophages treated with TCM; assay: Cell viability of macrophages differentiated by TCM; assay type: cell-based, human; settings: 1 μM
# [7] = tested on: Hepa1-6 cells; assay: Mouse model of hepatocellular carcinoma (subcutaneous Hepa1-6); assay type: in vivo
# Protocol: C57BL/6 (B6) wild-type mice purchased from DBL. For the subcutaneous tumor model of hepatocellular carcinoma, Hepa1-6 cells were mixed with Matrigel matrix (Corning) and inoculated subcutaneously into the right flank (4×10^5 cells/mouse) of the mice. MpepK peptide (100, 200 and 400 nmol/kg) were injected intraperitoneally every 3 days, beginning at day 12 after tumor inoculation and tumor volume was measured by electronic caliper. All animals were maintained in a specific pathogen-free environment on a 12-h light/dark cycle with free access to food and water. After the experiments were terminated, all mice were euthanized using isoflurane and cervical dislocation.
# [8] = TRAMP-C2 in C57BL6J mice, i.p. every 3 days, vs PBS group
smiles,measurement,setting,value
CC[C@H](C)[C@H](NC(=O)[C@H](CC(C)C)NC(=O)[C@H](C)NC(=O)[C@@H]1CCCN1C(=O)[C@H](CC(C)C)NC(=O)CNC(=O)[C@@H](NC(=O)[C@@H](NC(=O)[C@H](CC(C)C)NC(=O)[C@@H](NC(C)=O)C(C)C)[C@@H](C)O)[C@@H](C)O)C(=O)N[C@@H](CO)C(=O)N[C@@H](Cc1c[nH]c2ccccc12)C(=O)N[C@H](C(=O)N[C@@H](CCCCN)C(=O)N[C@@H](CCCNC(=N)N)C(=O)N[C@@H](CCCCN)C(=O)N[C@@H](CCCNC(=N)N)C(=O)N[C@@H](CCC(N)=O)C(=O)N[C@@H](CCC(N)=O)C(=O)NCC(=O)NCC(=O)NCC(=O)NCC(=O)N[C@@H](CO)C(=O)N[C@H](CCCCN)C(=O)N[C@H](CC(C)C)C(=O)N[C@H](C)C(=O)N[C@H](CCCCN)C(=O)N[C@H](CC(C)C)C(=O)N[C@H](C)C(=O)N[C@H](CCCCN)C(=O)N[C@H](CCCCN)C(=O)N[C@H](CC(C)C)C(=O)N[C@H](C)C(=O)N[C@H](CCCCN)C(=O)N[C@H](CC(C)C)C(=O)N[C@H](C)C(=O)N[C@H](CCCCN)C(=O)O)[C@@H](C)CC [MpepK],tumor volume,[1],significantly reduced
same,tumor weight,[1],not significantly changed
same,gene expression of arginase 1 (M2 macrophage marker),[2]; compared to PBS,significantly reduced
same,lung metastasis,[2]; vs PBS group,decreased
same,tumor volume,[2]; vs PBS group,decreased
same,tumor weight,[2]; vs PBS group,decreased
same,expression of caspase-3 in M2 macrophages compared to other subtype macrophages,"[3]; 1 μM, 1 h, then 24 h",increased
same,apoptosis in M2 macrophages compared to M0 and M1 macrophages,[3]; 0.01-10 μM,induced apoptosis
same,proliferation of PC3 cells,[4],significantly reduced
same,migration of PC3 cells,[4]; wound healing,significantly reduced
same,tumor volume,[5]; [8],significantly reduced
same,tumor weight,[5]; [8],significantly reduced
same,body weight of mice,[5]; TRAMP-C2 prostate cancer model,did not significantly change
same,E-cadherin (epithelial cell marker) in tumor tissues,[5]; prostate cancer model,increased
same,expression of PCNA (proliferative marker) in tumor tissues,[5]; prostate cancer model,reduced
same,expression of TGF-β and MMP9 in tumor tissues,[5]; prostate cancer model,reduced
same,vimentin and fibronectin (mesenchymal marker) in tumor tissues,[5]; prostate cancer model,reduced
same,apoptosis in macrophages treated with TCM,[6],induced apoptosis
same,body weight change,"[7]; Hepa1-6 model, 100, 200 and 400 nmol/kg i.p. every 3 days",no significant difference
same,survival rate,"[7]; Hepa1-6 model, 100, 200 and 400 nmol/kg, vs PBS group",significantly extended
same,tumor volume,"[7]; Hepa1-6 model, all doses (100, 200 and 400 nmol/kg) i.p. every 3 days, vs PBS group",significantly reduced
